Where a name gives a salt, the structure may show the parent alone.
Experiments:
[1] = target: T1, serotonine (5-HT) reuptake in synaptosomes (Rattus norvegicus, UniProt P31652); assay: Inhibition of 5-HT reuptake in synaptosomes; format: biochemical; conditions: 3H-5-HT, read-out: 5-HT-uptake IC50
T1 construct: in synaptosomes as described in WO 97/16451; from tissue; host or cells: synaptosomes (brain tissue)
Method: (§1) A number of compounds were tested for their ability to inhibit the reuptake of the monoamine neurotransmitters dopamine (DA) noradrenaline (NA) and serotonine (5-HT) in synaptosomes as described in WO 97/16451.
(§2) The test values are given as IC50 (the concentration (μM) of the test substance which inhibits the specific binding of ^3H-DA, ^3H-NA, or ^3H-5-HT by 50%).

[2] = target: T2, dopamine (DA) reuptake in synaptosomes (Rattus norvegicus, UniProt P23977); assay: Inhibition of DA reuptake in synaptosomes; format: biochemical; conditions: 3H-DA, read-out: DA-uptake IC50
T2 construct: in synaptosomes as described in WO 97/16451; from tissue; host or cells: synaptosomes (brain tissue)
Method: as §1, §2

[3] = target: T3, noradrenaline (NA) reuptake in synaptosomes (Rattus norvegicus); assay: Inhibition of NA reuptake in synaptosomes; format: biochemical; conditions: 3H-NA, read-out: NA-uptake IC50
T3 construct: in synaptosomes as described in WO 97/16451; from tissue; host or cells: synaptosomes (brain tissue)
Method: as §1, §2

T2 sequence (P23977 whole entry): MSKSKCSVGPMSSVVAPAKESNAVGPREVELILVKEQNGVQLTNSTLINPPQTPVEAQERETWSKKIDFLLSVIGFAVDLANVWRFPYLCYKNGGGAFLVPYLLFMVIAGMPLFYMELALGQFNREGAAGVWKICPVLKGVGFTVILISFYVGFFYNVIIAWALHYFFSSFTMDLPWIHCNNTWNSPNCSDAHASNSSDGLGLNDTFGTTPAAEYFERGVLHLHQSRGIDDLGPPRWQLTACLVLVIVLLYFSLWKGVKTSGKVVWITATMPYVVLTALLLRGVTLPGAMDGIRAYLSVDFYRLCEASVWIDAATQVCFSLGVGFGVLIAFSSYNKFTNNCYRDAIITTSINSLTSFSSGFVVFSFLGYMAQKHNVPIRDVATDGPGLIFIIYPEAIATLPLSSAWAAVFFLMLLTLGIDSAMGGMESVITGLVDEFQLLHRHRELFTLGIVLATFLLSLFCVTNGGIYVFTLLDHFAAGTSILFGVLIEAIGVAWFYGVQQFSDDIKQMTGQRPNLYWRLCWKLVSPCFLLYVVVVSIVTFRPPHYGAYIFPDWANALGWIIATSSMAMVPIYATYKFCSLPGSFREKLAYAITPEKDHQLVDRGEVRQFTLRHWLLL
T1 sequence (P31652 whole entry): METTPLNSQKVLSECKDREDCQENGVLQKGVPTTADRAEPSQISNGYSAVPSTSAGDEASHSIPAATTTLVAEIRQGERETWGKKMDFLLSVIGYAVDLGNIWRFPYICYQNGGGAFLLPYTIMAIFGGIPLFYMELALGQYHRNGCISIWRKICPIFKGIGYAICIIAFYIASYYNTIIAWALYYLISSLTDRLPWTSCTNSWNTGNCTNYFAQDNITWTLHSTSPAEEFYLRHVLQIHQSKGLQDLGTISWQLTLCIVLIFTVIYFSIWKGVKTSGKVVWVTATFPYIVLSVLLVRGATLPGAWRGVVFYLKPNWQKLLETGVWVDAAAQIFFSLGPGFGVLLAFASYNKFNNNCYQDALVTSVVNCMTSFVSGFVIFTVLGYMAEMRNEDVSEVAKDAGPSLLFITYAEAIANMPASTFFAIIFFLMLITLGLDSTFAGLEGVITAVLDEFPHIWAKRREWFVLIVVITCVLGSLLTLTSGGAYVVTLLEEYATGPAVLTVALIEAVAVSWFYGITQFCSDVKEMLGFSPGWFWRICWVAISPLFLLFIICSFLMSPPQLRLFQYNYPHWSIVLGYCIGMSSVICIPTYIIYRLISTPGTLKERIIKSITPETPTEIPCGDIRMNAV
T3 sequence (Q63380 1-617): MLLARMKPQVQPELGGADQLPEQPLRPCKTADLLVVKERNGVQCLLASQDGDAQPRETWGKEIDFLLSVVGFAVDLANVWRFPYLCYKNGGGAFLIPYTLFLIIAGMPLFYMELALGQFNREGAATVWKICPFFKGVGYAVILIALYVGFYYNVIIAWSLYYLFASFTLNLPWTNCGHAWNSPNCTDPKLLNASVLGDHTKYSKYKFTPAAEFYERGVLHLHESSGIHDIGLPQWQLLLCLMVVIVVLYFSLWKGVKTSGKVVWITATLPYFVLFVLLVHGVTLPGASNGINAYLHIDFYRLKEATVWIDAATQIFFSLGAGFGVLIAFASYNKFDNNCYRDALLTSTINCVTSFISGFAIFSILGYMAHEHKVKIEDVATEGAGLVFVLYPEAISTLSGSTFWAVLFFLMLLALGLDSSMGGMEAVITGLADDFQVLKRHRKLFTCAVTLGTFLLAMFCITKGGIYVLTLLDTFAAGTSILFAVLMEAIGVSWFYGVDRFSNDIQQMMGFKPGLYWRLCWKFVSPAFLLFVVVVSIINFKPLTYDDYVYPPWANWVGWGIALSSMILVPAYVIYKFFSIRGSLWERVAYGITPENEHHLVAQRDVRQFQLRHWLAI

| Compound | melting point | IC50 [1] | IC50 [2] | IC50 [3] |
| --- | --- | --- | --- | --- |
| COCC1(Cc2ccc3ccccc3c2)CCNCC1 (as salt: fumarate) [Compound 5da, 4-Methoxymethyl-4-naphthalen-2-ylmethyl-piperidine] | 139 to 142 °C | – | – | – |
| OCC1(Cc2ccc(Cl)c(Cl)c2)CCNCC1 [Compound 5a, [4-(3,4-Dichloro-benzyl)-piperidin-4-yl]-methanol] | 147.7 to 148.7 °C | – | – | – |
| COCC1(Cc2cccc(Cl)c2Cl)CCNCC1 (as salt: fumarate) [Compound 5ba, 4-(2,3-Dichloro-benzyl)-4-methoxymethyl-piperidine] | 167 to 168.4 °C | – | – | – |
| Clc1ccc(CC2(COc3ccccc3)CCNCC2)cc1Cl (as salt: fumarate) [Compound 5ac, 4-(3,4-Dichloro-benzyl)-4-phenoxymethyl-piperidine] | 165 to 167 °C | – | – | – |
| CCOCC1(Cc2ccc(Cl)c(Cl)c2)CCNCC1.O=C(O)/C=C/C(=O)O | 147.4 to 150.6 °C | – | – | – |
| Clc1ccc(OCC2(Cc3ccccc3)CCNCC2)cc1Cl [Compound 5ce, 4-Benzyl-4-(3,4-dichloro-phenoxymethyl)-piperidine] | 77.7 to 79.3 °C | 0.26 nM | 6 nM | 4.8 nM |
| Clc1ccc(CC2(COc3ccc(Cl)c(Cl)c3)CCNCC2)cc1Cl (as salt: fumarate) [Compound 5ae, 4-(3,4-Dichloro-benzyl)-4-(3,4-dichloro-phenoxymethyl)-piperidine] | 166.3 to 168.9 °C | – | – | – |
| COCC1(Cc2ccc(Cl)c(Cl)c2)CCNCC1.O=C(O)/C=C/C(=O)O [Compound 5aa, 4-(3,4-Dichloro-benzyl)-4-methoxymethyl-piperidine fumaric acid salt] | 158.1 to 162.2 °C | 22 nM | 1600 nM | 480 nM |
| Clc1ccc(CC2(COc3cccc(Cl)c3Cl)CCNCC2)cc1Cl [Compound 5ad, 4-(3,4-Dichloro-benzyl)-4-(2,3-dichloro-phenoxymethyl)-piperidine] | 93.9 to 94.6 °C | – | – | – |

From patent publication US20110046179A1, “NOVEL PIPERIDINE DERIVATIVES AND THEIR USE AS MONOAMINE NEUROTRANSMITTER RE-UPTAKE INHIBITORS” (priority 2006, published 2011)
